Consider 5 compounds from BindingDB's records for doi:10.1111/j.1747-0285.2011.01199.x (Sanford-Burnham Medical Research Institute, 2011).

Where only a bound is given, the exact number is not on record here.

Usually IC50 stands for the concentration at which inhibition is half-maximal.

For this assay, the target named is T1, Ephrin type-A receptor 4 [1-949,A922V] (Homo sapiens, UniProt P54764, A922V).
T1 construct: 1-949
The assay can be described thus: Enzyme-linked Immunosorbent Assay. Particulars: pH 7.5. Here is the method:
Protein A-coasted wells (from Pierce Biotechnology) were used to immobilize Eph receptor Fc fusion proteins (from R&D systems)incubated at 1 ug/ml in TBST.
Compound `O=C(O)c1ccc(-c2ccc(O)c(C(=O)O)c2)o1` [Salicylic acid derivative, 76B8] showed an IC50 above 500 µM.
In the case of `O=C(O)/C=C/c1ccc(-c2ccc(O)c(C(=O)O)c2)o1` [Salicylic acid derivative, 76A5] it was above 500 µM; in that of `O=C(/C=C/c1ccc(-c2ccc(O)c(C(=O)O)c2)o1)/C=C/c1ccc(-c2ccc(O)c(C(=O)O)c2)o1` [Salicylic acid derivative, 76D10], 2.6 µM.
As for `Cc1ccc(C)n1-c1ccc(O)c(C(=O)O)c1` [Salicylic acid derivative, compound 2], half-maximal inhibition (IC50) was put at 10 µM.
Regarding `Cc1ccc(C)n1-c1ccc(C(=O)O)c(O)c1` [4-(2,5-dimethyl-1H-pyrrol-1-yl)-2-hydroxybenzoic acid], half-maximal inhibition (IC50) required 1.3 µM.
